Reference: patent US20030225002A1, “Co-therapy for the treatment of migraine comprising anticonvulsant derivatives and anti-migraine agents” (priority 2002, published 2003)
Structures can show the parent of a compound that is named as a salt.

Columns and labels:
Assay type in all cases: in vivo, human
[1] = tested on: refractory migraine (migraine without aura); assay: Case Study 2: refractory migraine without aura; conditions: for Response of refractory migraine to earlier therapy: CORGARD in combination with PROZAC or CELEXA or trazodone
Procedure: The patient was a person with a lifelong history of refractory migraine (migraine without aura), averaging 8 migraines per month. […] The patient was started on topiramate at 25 mg/day, with dosage increasing to 75 mg/day. Simultaneously, the beta-blocker, CORGARD dosage was decreased to 20 mg/day, with CELEXA at 20 mg/day also continued.

[2] = tested on: severe refractory migraine with and without aura; assay: Case Study 3: severe refractory migraine with and without aura
Procedure: The patient was a person with a twenty-year history of severe refractory migraine with and without aura. […] The patient was started on topiramate at 50 mg/day increasing to 100 mg in the morning and 100 mg in the evening, in combination with INDERAL at 160 mg/day. […] After about 6 months, the patient was prescribed EFFEXOR XR (vanlafaxine HCl) at 37 mg/day, an increased topiramate dose of 125 mg in the morning and 150 mg in the evening, and 160 mg/day INDERAL.

[3] = tested on: persistent daily headache with migraine features; assay: Case Study 1: persistent daily headache with migraine features; conditions: one patient; for Response of persistent daily headache to earlier therapy: before topiramate
From the text: The patient was a person with persistent daily headache with migraine features.

CN(C)CCCC1(c2ccc(F)cc2)OCc2cc(C#N)ccc21 (stereo not shown) [CELEXA, citalopram HCl]
Response of refractory migraine to earlier therapy [1]: no response

CC(C)(C)NCC(O)COc1cccc2c1CC(O)C(O)C2 (stereo not shown) [CORGARD, nadolol]
Response of refractory migraine to earlier therapy [1]: no response

CCCC(CCC)C(=O)O [DEPAKOTE, valproic acid]
Response of severe refractory migraine ([2]; earlier therapy): modest symptomatic response
Tolerability, reason for discontinuation ([2]; earlier therapy): discontinued due to weight gain

CC(C)NCC(O)COc1cccc2ccccc12.Cl (stereo not shown) [INDERAL, propranolol HCl]
Response of severe refractory migraine ([2]; INDERAL at 120 mg/day in combination with tricyclic antidepressants): Only modest response
Response of persistent daily headache to earlier therapy [3]: failed to respond

CN1CCC(=C2c3ccccc3C=Cc3ccccc32)CC1 [PERIACTIN, cyproheptadine HCl]
Response of persistent daily headache to earlier therapy [3]: failed to respond

CNCCC(Oc1ccc(C(F)(F)F)cc1)c1ccccc1 (stereo not shown) [PROZAC, fluoxetine HCl]
Response of refractory migraine to earlier therapy [1]: no response

CNS(=O)(=O)CCc1ccc2[nH]cc(C3CCN(C)CC3)c2c1 [naratriptan]
Response of severe headaches [3]: did however respond

CNCCC=C1c2ccccc2CCc2ccccc21 [nortriptyline]
Response of persistent daily headache to earlier therapy [3]: failed to respond

Cc1cc2nc3c(=O)[nH]c(=O)nc-3n(C[C@H](O)[C@H](O)[C@H](O)CO)c2cc1C [riboflavin]
Effect of supplementation ([1]; 400 mg/day): no improvement

CNS(=O)(=O)Cc1ccc2[nH]cc(CCN(C)C)c2c1 [sumatriptan]
Response of severe refractory migraine ([2]; repeated frequent use): symptomatic response

O=c1n(CCCN2CCN(c3cccc(Cl)c3)CC2)nc2ccccn12 [trazodone]
Response of refractory migraine to earlier therapy [1]: no response
